According to ChEMBL document CHEMBL1154462, “Synthesis and in vitro anti-bacterial evaluation of tetracyclic-ortho-fused 4H-naphtho[1',2'-5,6]pyrano[3,4-d](1,2,3)selenadiazole and its derivatives” (2008):
In brackets after ≈: the same amount, converted by molar mass.

Legend:
Type in all cases: functional
Staphylococcus aureus = assay: Antibacterial activity against Staphylococcus aureus isolate by agar cup method
Bacillus subtilis = assay: Antibacterial activity against Bacillus subtilis isolate by agar cup method
Escherichia coli = assay: Antibacterial activity against Escherichia coli isolate by agar cup method
Pseudomonas aeruginosa = assay: Antibacterial activity against Pseudomonas aeruginosa isolate by agar cup method

SMILES	MIC (Staphylococcus aureus) [µg/mL]	MIC (Bacillus subtilis) [µg/mL]	MIC (Escherichia coli) [µg/mL]	MIC (Pseudomonas aeruginosa) [µg/mL]
c1ccc2c3c(ccc2c1)OCc1[se]nnc1-3	250 (≈ 871 µM)	250 (≈ 871 µM)	250 (≈ 871 µM)	1000 (≈ 3480 µM)
Brc1ccc2c3c(ccc2c1)OCc1[se]nnc1-3	50 (≈ 137 µM)	100 (≈ 273 µM)	50 (≈ 137 µM)	500 (≈ 1370 µM)
CC1Oc2ccc3cc(Br)ccc3c2-c2nn[se]c21 (stereo not given)	500 (≈ 1320 µM)	50 (≈ 132 µM)	500 (≈ 1320 µM)	1000 (≈ 2630 µM)
CC1Oc2ccc3ccccc3c2-c2nn[se]c21 (stereo not given)	250 (≈ 830 µM)	250 (≈ 830 µM)	500 (≈ 1660 µM)	1000 (≈ 3320 µM)
Brc1cccc2c3c(ccc12)OCc1[se]nnc1-3	50 (≈ 137 µM)	100 (≈ 273 µM)	250 (≈ 683 µM)	1000 (≈ 2730 µM)
